These results are taken from patent US5741664A, “Subtilisin variants capable of cleaving substrates containing dibasic residues” (priority 1995, dated 1998).

In assay [1] the target is T1, subtilisin (subtilisin BPN' from Bacillus amyloliquefaciens, wild type) (Bacillus amyloliquefaciens, UniProt P00782).
T1 sequence (P00782 108-382): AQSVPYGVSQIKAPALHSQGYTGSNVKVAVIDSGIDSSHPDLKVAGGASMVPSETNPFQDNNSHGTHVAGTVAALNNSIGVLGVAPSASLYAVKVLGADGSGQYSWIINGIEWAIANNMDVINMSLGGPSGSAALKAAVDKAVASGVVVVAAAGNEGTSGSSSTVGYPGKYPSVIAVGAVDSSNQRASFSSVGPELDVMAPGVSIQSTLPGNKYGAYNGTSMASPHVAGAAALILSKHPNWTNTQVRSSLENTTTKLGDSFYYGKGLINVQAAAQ
The note with it: subtilisin cleaving suc-AAPF-pna; Estell et al. 1986; cited from earlier work.

Assay [2] addresses T2, Bacillus amyloliquefaciens subtilisin BPN' variant N62D/G166D (mature enzyme SEQ ID NO: 72) (Bacillus amyloliquefaciens, UniProt P00782, G273D/N169D).
T2 construct: made in house; host or cells: Bacillus subtilis BG2036 (secreted, purified from culture supernatant)
The assay is described as follows: hydrolysis of p-nitroanilide tetrapeptide substrates, initial rates. To be noted: suc-AAXX-pna series; 20 mM Tris-Cl pH 8.2, 4% DMSO, 25 C. The assay is classed as biochemical. The procedure:
(§1) Despite the less than additive effects seen for the two charged substitutions in the S2 site, we decided to combine the best S2 site variant (N62D) with either of the acidic substitutions in the S1 site. The two double mutants, N62D/G166E and N62D/G166D, were analyzed with substrates having the form, suc-AAXX-pna (SEQ ID NO: 71) where XX was either KK (SEQ ID NO: 66), KR (SEQ ID NO: 67), KF (SEQ ID NO: 62), PK (SEQ ID NO: 58), PF (SEQ ID NO: 56) or AF (SEQ ID NO: 63)(FIG. 4). The wild-type preference was AF>PF~KF>KK~PK>KR, whereas the double mutants had the preference KK>KR>KF>PK~AF>PF. […]
(§2) Subtilisins were assayed by measuring the initial rates of hydrolysis of p-nitroanilide tetrapeptide substrates in 0.4 mL 20 mM Tris-Cl pH 8.2, 4 % (v/v) dimethyl sulfoxide at (25±0.2)° C. as described previously (Estell, D. A., Graycar, T. P., Miller, J. V., Powers, D. B., Burnier, J. P., Ng, P. G. and Wells, J. A. [1986] Science 233:659-663). Enzyme concentrations [E]0 were determined spectrophotometrically using E280 nm 0.1%=1.17 (Matsubara, H.; Kasper, C B.; Brown, D. M.; and Smith, E. L. (1965) J. Biol. Chem.,240:1125-1130.), and were typically 5-50 nM in reactions. Initial rates were determined for nine to twelve different substrate concentrations over the range of 0.001-2.0 mM. […]

Assay [3] addresses T3, Bacillus amyloliquefaciens subtilisin BPN' variant N62D/G166E (Bacillus amyloliquefaciens, UniProt P00782, G273E/N169D).
T3 construct: made in house; host or cells: Bacillus subtilis BG2036 (secreted, purified from culture supernatant)
The assay is described as above. It counts as biochemical. The note with it: suc-AAXX-pna series; 20 mM Tris-Cl pH 8.2, 4% DMSO, 25 C. The protocol:
as §1, §2

Assay [4] deals with T4, Bacillus amyloliquefaciens subtilisin BPN' variant G166D (Bacillus amyloliquefaciens, UniProt P00782, G273D).
T4 construct: made in house; host or cells: Bacillus subtilis BG2036 (secreted, purified from culture supernatant)
Described as above. It counts as biochemical. To be noted: suc-AAPX-pna series; 20 mM Tris-Cl pH 8.2, 4% DMSO, 25 C.
Text: To probe the effects of the G166E and G166D on specificity at the P1 position we used substrates having the form suc-AAPX-pna (SEQ ID NO: 69) where X was either Lys (SEQ ID NO: 58), Arg (SEQ ID NO: 59), Phe (SEQ ID NO: 56), Met (SEQ ID NO: 60) or Gln (SEQ ID NO: 61). Whereas the wild-type enzyme preferred Phe>Met>Lys>Arg>Gln, the G166E preferred Lys~Phe>Arg~Met>Gln, and G166D preferred Lys>Phe~Arg~Met>Gln. Thus, both the acidic substitutions at position 166 caused a shift in preference for basic residues as previously reported (Wells, J. A., Powers, D. B., Bott, R. R., Graycar, T. P. and Estell, D. A. (1987a), Proc. Natl. Acad. Sci. USA 84:1219-1223).
as §2

Assay [5] addresses T5, KEX2 (yeast pro-hormone processing protease) (Saccharomyces cerevisiae, UniProt P13134).
T5 sequence (P13134 114-613 limits assumed): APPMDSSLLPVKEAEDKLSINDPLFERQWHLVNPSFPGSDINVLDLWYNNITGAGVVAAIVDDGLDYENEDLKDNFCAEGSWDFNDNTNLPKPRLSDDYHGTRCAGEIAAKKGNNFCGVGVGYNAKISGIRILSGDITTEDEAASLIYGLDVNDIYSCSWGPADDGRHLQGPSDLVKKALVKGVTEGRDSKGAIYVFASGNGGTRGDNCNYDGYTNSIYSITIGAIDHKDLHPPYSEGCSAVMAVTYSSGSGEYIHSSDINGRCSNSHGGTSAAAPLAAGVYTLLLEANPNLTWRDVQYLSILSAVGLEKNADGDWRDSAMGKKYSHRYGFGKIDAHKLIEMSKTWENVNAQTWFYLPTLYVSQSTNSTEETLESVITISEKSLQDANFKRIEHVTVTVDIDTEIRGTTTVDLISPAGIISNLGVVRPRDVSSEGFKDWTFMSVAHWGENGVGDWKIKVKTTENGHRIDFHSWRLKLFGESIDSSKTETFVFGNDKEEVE
The note with it: KEX2 cleaving Boc-RVRR-MCA; Brenner and Fuller 1992; cited from earlier work.

Residues, ends and D or L forms follow the SMILES beside them.

T3 sequence (P00782 108-382 N169D/G273E): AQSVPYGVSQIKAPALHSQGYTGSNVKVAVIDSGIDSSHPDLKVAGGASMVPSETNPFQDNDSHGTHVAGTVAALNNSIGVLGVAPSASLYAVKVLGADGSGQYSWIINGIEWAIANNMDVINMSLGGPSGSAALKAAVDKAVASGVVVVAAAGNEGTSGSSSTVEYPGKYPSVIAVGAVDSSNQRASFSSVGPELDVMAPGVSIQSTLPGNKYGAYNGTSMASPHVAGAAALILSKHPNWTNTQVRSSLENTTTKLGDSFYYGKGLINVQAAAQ
T2 sequence (P00782 108-382 N169D/G273D): as the sequence (P00782 108-382 N169D/G273E) above, with E166D counted along it
T4 sequence (P00782 108-382 G273D): as the sequence (P00782 108-382 N169D/G273E) above, with D62N, E166D counted along it

For the molecule `C[C@H](NC(=O)CCC(=O)O)C(=O)N[C@@H](C)C(=O)N1CCC[C@H]1C(=O)N[C@@H](Cc1ccccc1)C(=O)Nc1ccc([N+](=O)[O-])cc1` [suc-AAPF-pna, N-succinyl-alanine-alanine-proline-phenylalanyl-p-nitroanalide] (HELM PEPTIDE1{[O=C(O)CCC(=O)[*:2]].A.A.P.F.[O=[N+]([O-])c1ccc(N[*:1])cc1]}$$$$V2.0), the specificity constant (kcat/Km) in assay [1] is 300000 M⁻¹ s⁻¹.
Turning to `C[C@H](NC(=O)CCC(=O)O)C(=O)N[C@@H](C)C(=O)N[C@@H](CCCCN)C(=O)N[C@@H](CCCCN)C(=O)Nc1ccc([N+](=O)[O-])cc1` [Lys-Lys substrate] (HELM PEPTIDE1{[O=C(O)CCC(=O)[*:2]].A.A.K.K.[O=[N+]([O-])c1ccc(N[*:1])cc1]}$$$$V2.0), the “ratio of catalytic efficiencies (kcat/Km), Lys-Lys substrate versus Lys-Phe substrate” value is 18 times faster in assay [2] and “about 8 times faster” in assay [3].
With `C[C@H](NC(=O)CCC(=O)O)C(=O)N[C@@H](C)C(=O)N1CCC[C@H]1C(=O)N[C@@H](CCCCN)C(=O)Nc1ccc([N+](=O)[O-])cc1` [Lys P1 substrate] (HELM PEPTIDE1{[O=C(O)CCC(=O)[*:2]].A.A.P.K.[O=[N+]([O-])c1ccc(N[*:1])cc1]}$$$$V2.0), in assay [4], the “ratio of catalytic efficiencies (kcat/Km), Lys P1 substrate versus Phe P1 substrate” value was “about 3 times faster”.
Regarding `Cc1cc(=O)oc2cc(NC(=O)[C@H](CCCNC(=N)N)NC(=O)[C@H](CCCNC(=N)N)NC(=O)[C@@H](NC(=O)[C@H](CCCNC(=N)N)NC(=O)OC(C)(C)C)C(C)C)ccc12` [Boc-RVRR-MCA, N-t-butoxy carbonyl-arginine-valine-arginine-arginine-7-amido-4-methyl coumarin] (HELM PEPTIDE1{[CC(C)(C)OC(=O)[*:2]].R.V.R.R.[Cc1cc(=O)oc2cc(N[*:1])ccc12]}$$$$V2.0), the kcat/Km in assay [5] is 1e+06 M⁻¹ s⁻¹.

What is called kcat/Km is the turnover number divided by the Michaelis constant.
